Experimental data taken from publication PMC9804387, “Substrate Peptidomimetic Inhibitors of P. falciparum Plasmepsin X with Potent Antimalarial Activity” (Chemmedchem, 2022).
“And” between values parts separate entries of the source, which are not always exact repeats. Equal values may be shown once. Where a name gives a salt, the structure may show the parent alone. Read-outs that look alike come from different tables or passages of the source.

Tests used:
recombinant Pf PMX = molecular target: T1, recombinant Pf PMX (Plasmodium falciparum, UniProt Q8IAS0); experiment: PMX biochemical FRET assay (Rh2N fluorogenic substrate cleavage); conditions: for IC50: 37 °C
T1 construct: made in house
Protocol: FRET Protease Assays. FRET protease assays were performed as previously described.[19, 20, 27, 28] Briefly, ten‐point 1 : 3‐fold dilution series of the compounds were prepared in 384‐well black low volume assay plates (Greiner) using an Echo555 (Labcyte). 10 mM compound stocks were transferred into assay plates such that the starting concentration was 90 μM (Pv PMV assays), 11.25 μM (renin, cathepsin D and BACE‐1 assays) or 100 nM and 10 μM (Pf PMX and Pf PMIX assays). All wells were backfilled to 200 nL DMSO such that the DMSO concentration remained constant across the assay plates (1 % final). All compound potency assays were conducted in 20 μL total volume. For each assay, 10 μL of recombinant enzymes in respective assay buffers (Table S2) were dispensed into compound containing assay plates using a Multidrop‐Combi dispenser and allowed to incubate for 15 min. Recombinant Pf PMX, Pf PMIX and Pv PMV were expressed as previously described,[23, 27, 28] and recombinant human aspartyl proteases were purchased commercially. 10 μL of the fluorogenic peptide substrates incubated at 37 °C for the duration and conditions noted in Table S2. Samples were excited at 340 nm and fluorescence emission measured at 492 nm using an Envision fluorescence plate reader (Perkin‐Elmer). The 0 % inhibition control contained DMSO alone (1 % final) and the 100 % inhibition control was in the absence of enzyme. […]
(§1) Table S2 . P rotease FRET assay conditions.
(§2) PMX as sa y PMIX PM V assay Renin assay Cathepsin D assay BA CE-1 assay E nzy me prot e as e 0.25 nM pro te a se 6 nM prot e as e q ua nti ty 0.1 nM pro t ea se 1.5 nM pro t ea se 2.5 nM pro t ea se 3 nM (Pro te os #R-001) ( Athe ns Re sea rc h (Sigma #S4195) […]
(§3) 25mM so di um acetate, 100 mM 25 mM M E S, 25 m M 50 mM Tr is, 100 mM 100 mM so di u m 20 mM so dium Buffer acetate, 0.005% sodium chloride and Tris-HCl, 0.01% N aC l, 0. 1% Bri j-35, acetate 0.02% scetate, 0.05% […]
(§4) Sub str at e DABCYL- ( DA BC YL ) - DABCYL- DABCYL-(γ- Ab u) - E[E(EDANS)]KPIL […]

in vitro = type: cell-based; conditions: human
Protocol: HepG2 Cytotoxicity Assay. HepG2 cytotoxicity assays were performed as previously described.[41] Briefly, human hepatocyte HepG2 cells were cultured in DMEM supplemented with 10 % FCS at 37 °C and 5 % CO2 in a humidified incubator. Cells were seeded at 1000 cells/well in 50 μL in 384‐well plates (Grenier) and compounds incubated in ten‐point 1 : 2‐fold dilution series for 48 h. Cytotoxicity was determined using Cell Titer‐Glo (Promega), normalized to DMSO alone controls (100 % viability) and control compound Bortezomib (0 % viability at 10 μM). CC50 values were calculated by GraphPad Prism (8.0.2) software using a nonlinear regression four‐parameter fit analysis with the sigmoidal dose response (variable slope).

[1] = test system: P. falciparum (Pf) 3D7 parasites; experiment: P. falciparum LDH viability assay; type: cell-based; conditions: for EC50: Plasmodium falciparum, 3D7, 72 h, LDH activity, 72 h at 37 °C, mean and SD of 3 independent experiments; for fold decrease in parasite activity compared to PMX inhibition: Pf 3D7 EC50 versus PMX IC50
Protocol: P. falciparum LDH Viability Assay. P. falciparum LDH viability assays were performed as previously described.[40] Briefly, a ten‐point 1 : 3‐fold dilution series of the compounds were pre‐dispensed in 384‐well assay plates (Grenier), and RPMI/AlbuMAX growth media inoculated with synchronized ring stage P. falciparum parasites. 10 mM compound stocks were transferred into the assay plates such that the starting concentration was 10 μM. Plates were incubated for 72 h and then frozen at −80 °C overnight. Lactate dehydrogenase (LDH) activity was quantified with APAD by measuring absorbance of NBT at 650 nm. Data were normalized to percent growth inhibition using the positive control of 0.1 % DMSO alone and the negative control of 100 nM chloroquine. Half‐maximal effective concentration (EC50) values were calculated by GraphPad Prism (8.0.2) software using a nonlinear regression four‐parameter fit analysis using a sigmoidal dose response (variable slope).

recombinant Pf PMIX = molecular target: T2, recombinant Pf PMIX (Plasmodium falciparum, UniProt Q8ILG2); experiment: PMIX FRET protease assay; type: biochemical, P. falciparum; conditions: mean and SD of 4 replicate FRET experiments, 37 °C
T2 construct: made in house
Protocol: (§5) FRET Protease Assays. FRET protease assays were performed as previously described.[19, 20, 27, 28] Briefly, ten‐point 1 : 3‐fold dilution series of the compounds were prepared in 384‐well black low volume assay plates (Greiner) using an Echo555 (Labcyte). 10 mM compound stocks were transferred into assay plates such that the starting concentration was 90 μM (Pv PMV assays), 11.25 μM (renin, cathepsin D and BACE‐1 assays) or 100 nM and 10 μM (Pf PMX and Pf PMIX assays). All wells were backfilled to 200 nL DMSO such that the DMSO concentration remained constant across the assay plates (1 % final). All compound potency assays were conducted in 20 μL total volume. For each assay, 10 μL of recombinant enzymes in respective assay buffers (Table S2) were dispensed into compound containing assay plates using a Multidrop‐Combi dispenser and allowed to incubate for 15 min. Recombinant Pf PMX, Pf PMIX and Pv PMV were expressed as previously described,[23, 27, 28] and recombinant human aspartyl proteases were purchased commercially. 10 μL of the fluorogenic peptide substrates incubated at 37 °C for the duration and conditions noted in Table S2. Samples were excited at 340 nm and fluorescence emission measured at 492 nm using an Envision fluorescence plate reader (Perkin‐Elmer). The 0 % inhibition control contained DMSO alone (1 % final) and the 100 % inhibition control was in the absence of enzyme. Half‐maximal inhibitory concentration (IC50) values were calculated by GraphPad Prism (8.0.2) software using a nonlinear regression four‐parameter fit analysis using a sigmoidal dose response (variable slope).
as §1, §2, §3, §4

renin = molecular target: T3, renin (Homo sapiens, UniProt P00797); experiment: Renin FRET protease assay; type: biochemical; conditions: mean and SD of 4 replicate FRET experiments, 37 °C; highest concentration tested 11 μM
T3 construct: purchased Proteos R-001
T3 sequence (P00797 67-406): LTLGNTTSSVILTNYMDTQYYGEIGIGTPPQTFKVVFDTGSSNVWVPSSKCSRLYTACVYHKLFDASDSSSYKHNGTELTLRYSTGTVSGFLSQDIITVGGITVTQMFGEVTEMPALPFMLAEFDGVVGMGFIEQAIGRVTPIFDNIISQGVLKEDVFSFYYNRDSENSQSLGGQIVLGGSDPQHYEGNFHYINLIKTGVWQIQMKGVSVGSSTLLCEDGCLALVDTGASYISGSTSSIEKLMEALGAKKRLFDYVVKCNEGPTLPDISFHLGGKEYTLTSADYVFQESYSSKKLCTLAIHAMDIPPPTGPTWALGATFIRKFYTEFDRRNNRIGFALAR

recombinant Pv PMV = molecular target: T4, recombinant Pv PMV (Plasmodium vivax, UniProt A5K302); experiment: PMV FRET protease assay; type: biochemical
T4 construct: made in house
Protocol: as §5, §1, §2, §3, §4

cathepsin D = molecular target: T5, cathepsin D (Homo sapiens, UniProt P07339); experiment: Cathepsin D FRET protease assay; type: biochemical; conditions: mean and SD of 4 replicate FRET experiments, 37 °C; highest concentration tested 11 μM
T5 construct: purchased Athens Research 16-12-030104

BACE‐1 = molecular target: T6, BACE‐1 (Homo sapiens, UniProt P56817); experiment: BACE-1 FRET protease assay; type: biochemical; conditions: mean and SD of 4 replicate FRET experiments, 37 °C; highest concentration tested 11 μM
T6 construct: purchased Sigma S4195

[2] = recombinant PMX, fluorogenic substrate (Rh2N) cleavage, 4 h, mean and SD of 4 replicates (Tables 1, 2)
[3] = Table 3, mean and SD of 4 replicate FRET experiments

T6 sequence (P56817 46-460 limits assumed): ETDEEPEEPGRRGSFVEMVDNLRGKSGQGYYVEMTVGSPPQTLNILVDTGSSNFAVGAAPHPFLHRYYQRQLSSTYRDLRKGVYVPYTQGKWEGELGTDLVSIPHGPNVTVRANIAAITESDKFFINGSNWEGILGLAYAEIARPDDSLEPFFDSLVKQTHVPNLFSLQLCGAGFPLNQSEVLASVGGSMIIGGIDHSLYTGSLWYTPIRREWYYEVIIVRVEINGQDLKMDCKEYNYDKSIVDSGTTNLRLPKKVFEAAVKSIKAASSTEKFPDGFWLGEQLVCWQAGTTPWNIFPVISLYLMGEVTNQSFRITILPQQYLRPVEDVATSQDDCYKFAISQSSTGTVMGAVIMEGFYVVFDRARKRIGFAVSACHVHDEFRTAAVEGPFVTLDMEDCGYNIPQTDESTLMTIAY
T2 sequence (Q8ILG2 whole entry): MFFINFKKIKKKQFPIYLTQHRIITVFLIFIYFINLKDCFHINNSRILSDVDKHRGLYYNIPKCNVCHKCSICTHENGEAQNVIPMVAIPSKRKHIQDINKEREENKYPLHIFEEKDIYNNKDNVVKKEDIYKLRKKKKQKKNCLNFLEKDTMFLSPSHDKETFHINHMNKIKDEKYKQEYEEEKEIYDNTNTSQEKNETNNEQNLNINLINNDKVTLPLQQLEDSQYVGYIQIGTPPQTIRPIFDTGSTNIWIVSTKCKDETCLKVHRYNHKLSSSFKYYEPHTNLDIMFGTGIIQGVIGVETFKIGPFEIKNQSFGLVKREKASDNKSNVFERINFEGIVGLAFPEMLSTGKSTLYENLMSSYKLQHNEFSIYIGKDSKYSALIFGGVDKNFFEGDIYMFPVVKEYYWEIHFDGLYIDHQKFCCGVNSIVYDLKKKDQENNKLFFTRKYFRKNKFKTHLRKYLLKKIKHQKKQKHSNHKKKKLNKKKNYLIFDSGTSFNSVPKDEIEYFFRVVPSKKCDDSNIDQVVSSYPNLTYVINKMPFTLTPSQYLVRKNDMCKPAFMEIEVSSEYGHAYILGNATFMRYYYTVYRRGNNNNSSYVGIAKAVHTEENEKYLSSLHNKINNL
T5 sequence (P07339 65-412): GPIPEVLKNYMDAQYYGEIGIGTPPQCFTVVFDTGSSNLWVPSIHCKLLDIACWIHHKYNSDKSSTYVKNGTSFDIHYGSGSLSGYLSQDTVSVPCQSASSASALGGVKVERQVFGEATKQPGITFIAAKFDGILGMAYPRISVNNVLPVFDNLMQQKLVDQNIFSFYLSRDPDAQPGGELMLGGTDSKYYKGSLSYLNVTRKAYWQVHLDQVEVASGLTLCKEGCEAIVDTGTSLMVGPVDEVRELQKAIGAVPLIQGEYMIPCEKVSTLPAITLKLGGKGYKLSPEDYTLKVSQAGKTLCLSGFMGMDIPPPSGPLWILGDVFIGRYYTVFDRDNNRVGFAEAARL
T1 sequence (Q8IAS0 222-573): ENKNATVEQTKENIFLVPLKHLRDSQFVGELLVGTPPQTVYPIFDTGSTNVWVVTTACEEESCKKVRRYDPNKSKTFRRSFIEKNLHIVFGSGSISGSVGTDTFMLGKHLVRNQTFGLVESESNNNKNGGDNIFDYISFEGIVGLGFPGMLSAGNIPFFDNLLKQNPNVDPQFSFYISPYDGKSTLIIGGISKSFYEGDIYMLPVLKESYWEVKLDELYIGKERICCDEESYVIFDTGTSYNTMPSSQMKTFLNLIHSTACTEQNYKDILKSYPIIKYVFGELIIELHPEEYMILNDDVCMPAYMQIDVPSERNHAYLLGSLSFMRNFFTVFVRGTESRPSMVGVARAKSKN
T4 sequence (A5K302 35-536): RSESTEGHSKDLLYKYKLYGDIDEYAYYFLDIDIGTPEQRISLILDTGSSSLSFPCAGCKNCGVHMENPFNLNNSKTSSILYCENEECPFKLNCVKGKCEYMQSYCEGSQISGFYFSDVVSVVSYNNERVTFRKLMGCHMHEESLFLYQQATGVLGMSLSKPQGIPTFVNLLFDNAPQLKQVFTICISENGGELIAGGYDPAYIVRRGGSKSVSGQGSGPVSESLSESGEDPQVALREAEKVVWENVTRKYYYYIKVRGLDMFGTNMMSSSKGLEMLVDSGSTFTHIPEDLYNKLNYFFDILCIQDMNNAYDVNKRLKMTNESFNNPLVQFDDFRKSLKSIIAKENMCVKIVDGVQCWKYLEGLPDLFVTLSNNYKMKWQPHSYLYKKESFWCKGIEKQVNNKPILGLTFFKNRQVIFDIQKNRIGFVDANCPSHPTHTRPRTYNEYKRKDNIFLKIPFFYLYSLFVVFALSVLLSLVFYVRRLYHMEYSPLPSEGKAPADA

| SMILES | IC50 (recombinant Pf PMX; [2]) | CC50 at 48 h (in vitro) [nM] | EC50 [1] [nM] | IC50 (recombinant Pf PMIX) [nM] | IC50 (recombinant Pf PMX; [3]) [nM] | IC50 (renin) [nM] | IC50 (recombinant Pv PMV) [nM] | IC50 (cathepsin D) [nM] | IC50 (BACE‐1) [nM] | fold decrease in parasite activity compared to PMX inhibition [1] | fold less active against PMX than the L‐configured Ser (38) counterpart (recombinant Pf PMX; PMX IC50 compared with 38) [fold] | IC50 (recombinant Pv PMV; Table S2, positive control activity in assay, 90 min, read-out: Positive control IC50 in PMV assay) [nM] |
| --- | --- | --- | --- | --- | --- | --- | --- | --- | --- | --- | --- | --- |
| CC(NCC(O)C(Cc1ccccc1)NC(=O)C(Cc1ccccc1)NC(=O)C(CO)NC(=O)OCc1ccccc1)c1ccccc1 (stereo not drawn) [Compd 22, Cbz‐Ser‐Phe‐Phe‐HEA‐Bn(CH3)⋅TFA] | < 1000 nM and 190 nM and 170 nM | > 40000 | 1400 | – | – | – | – | – | – | – | – | – |
| CC(C)CC(NC(=O)C(Cc1ccccc1)NC(=O)C(CO)NC(=O)OCc1ccccc1)C(O)CNC(C)c1ccccc1 (stereo not drawn) [Compd 23, Cbz‐Ser‐Phe‐Leu‐HEA‐Bn(CH3)⋅TFA] | > 1000 nM and 3600 nM | 30000 | 6000 | – | – | – | – | – | – | – | – | – |
| CC(C)CC(NC(=O)C(CO)NC(=O)OCc1ccccc1)C(=O)NC(Cc1ccccc1)C(O)CNC(C)c1ccccc1 (stereo not drawn) [Compd 24, Cbz‐Ser‐Leu‐Phe‐HEA‐Bn(CH3)⋅TFA] | < 1000 nM and 200 nM | > 40000 | 1600 | – | – | – | – | – | – | – | – | – |
| CC(C)CC(NC(=O)C(CO)NC(=O)OCc1ccccc1)C(=O)NC(CC(C)C)C(O)CNC(C)c1ccccc1 (stereo not drawn) [Compd 25, Cbz‐Ser‐Leu‐Leu‐HEA‐Bn(CH3)⋅TFA] | > 1000 nM and 3500 nM | > 40000 | > 11000 | – | – | – | – | – | – | – | – | – |
| CCC(C)C(NC(C)=O)C(=O)NC(CO)C(=O)NC(Cc1ccccc1)C(O)CNC(C)c1ccccc1 (stereo not drawn) [Compd 26, Ac‐Ile‐Ser‐Phe‐HEA‐Bn(CH3)⋅TFA] | 10 nM | > 40000 | 190 | 2700 | 10 | > 11000 | > 90000 | > 11000 | 2900 | – | – | – |
| CC(=O)NC(CC(N)=O)C(=O)NC(CO)C(=O)NC(Cc1ccccc1)C(O)CNC(C)c1ccccc1 (stereo not drawn) [Compd 27, Ac‐Asn‐Ser‐Phe‐HEA‐Bn(CH3)⋅TFA] | 580 nM | > 40000 | 6700 | – | – | – | – | – | – | approximately 10 fold | – | – |
| CC(=O)NC(CO)C(=O)NC(CO)C(=O)NC(Cc1ccccc1)C(O)CNC(C)c1ccccc1 (stereo not drawn) [Compd 28, Ac‐Ser‐Ser‐Phe‐HEA‐Bn(CH3)⋅TFA] | 580 nM | > 40000 | > 11000 | – | – | – | – | – | – | approximately 10 fold | – | – |
| CC(C)[C@H](NC(=O)OCc1ccccc1)C(=O)N[C@@H](Cc1ccccc1)[C@H](O)CN[C@H](C)c1ccccc1 [Compd 34, Cbz‐Val‐Phe‐HEA‐Bn(CH3)] | 10 nM | 13000 | 50 | 6900 | 10 | > 11000 | > 90000 | > 11000 | > 11000 | – | – | – |
| CC(C)C[C@H](NC(=O)OCc1ccccc1)C(=O)N[C@@H](Cc1ccccc1)[C@H](O)CN[C@H](C)c1ccccc1 [Compd 35, Cbz‐Leu‐Phe‐HEA‐Bn(CH3)] | 180 nM | 18000 | 600 | – | – | – | – | – | – | approximately 6 fold | – | – |
| C[C@@H](NC[C@@H](O)[C@H](Cc1ccccc1)NC(=O)[C@H](Cc1ccccc1)NC(=O)OCc1ccccc1)c1ccccc1 [Compd 36, Cbz‐Phe‐Phe‐HEA‐Bn(CH3)] | 70 nM | > 40000 | 650 | – | – | – | – | – | – | approximately 6 fold | – | – |
| CCC(C)[C@H](NC(=O)OCc1ccccc1)C(=O)N[C@@H](Cc1ccccc1)[C@H](O)CN[C@H](C)c1ccccc1 (stereo partly drawn) [Compd 37, Cbz‐Ile‐Phe‐HEA‐Bn(CH3)] | 20 nM | > 40000 | 140 | 14700 | – | > 11000 | > 90000 | 200 | > 11000 | – | – | – |
| CC(=O)N[C@@H](CO)C(=O)N[C@@H](Cc1ccccc1)[C@H](O)CN[C@H](C)c1ccccc1 [Compd 39, Ac‐Ser‐Phe‐HEA‐Bn(CH3)⋅TFA] | 3300 nM | > 40000 | 6200 | – | – | – | – | – | – | – | – | – |
| C[C@@H](NC[C@@H](O)[C@H](Cc1ccccc1)NC(=O)[C@@H](CO)NC(=O)OCc1ccccc1)c1ccccc1 [Compd 40, Cbz‐D‐Ser‐Phe‐HEA‐Bn(CH3)⋅TFA] | 330 nM | > 40000 | 570 | – | – | – | – | – | – | – | 7 | – |
| CC(C)C[C@H](NC(=O)[C@H](CO)NC(=O)OCc1ccccc1)[C@H](O)CN[C@H](C)c1ccccc1 [Compd 41, Cbz‐Ser‐Leu‐HEA‐Bn(CH3)⋅TFA] | 1800 nM | > 40000 | 3200 | – | – | – | – | – | – | – | – | – |
| CC(O)[C@H](NC(=O)OCc1ccccc1)C(=O)N[C@@H](Cc1ccccc1)[C@H](O)CN[C@H](C)c1ccccc1 (stereo partly drawn) [Compd 42, Cbz‐Thr‐Phe‐HEA‐Bn(CH3)⋅TFA] | 160 nM | > 40000 | 260 | – | – | – | – | – | – | 2 fold | – | – |
| CC(C)C[C@H](NC(=O)[C@@H](NC(=O)[C@H](CCON=C(N)N)NC(=O)OCc1ccccc1)C(C)C)[C@@H](O)CC(=O)NCCc1ccccc1 [WEHI-842, reference compound] | – | – | – | – | – | – | – | – | – | – | – | 17 |
